From patent publication US12324769B1, “Double-network versatile hydrogel with antibacterial and drug sequential release capabilities” (Eye Institute of Shandong First Medical University, priority 2023, dated 2025)

Legend:
[1] = cumulative release of PDRN and verteporfin in PBS at 37° C.; assay type: physicochemical; settings: from SQPV hydrogel
[2] = system: Raw264.7 cells; assay: macrophage cytoskeleton staining after LPS/IFN-γ induced M1 polarization; assay type: cell-based; settings: M1-induced Raw264.7, cytoskeleton staining
Method: The anti-inflammatory properties of SQPV hydrogel prepared in Embodiment 1, SQP hydrogel prepared in Comparative embodiment 1 and SQ hydrogel prepared in Comparative embodiment 2 are investigated. […] Therefore, regulating inflammatory response has become the key focus of developing ideal corneal substitutes. […] In this present disclosure, Raw264.7 cells are inoculated on a 6-well plate for 24 h, and then stimulated with LPS (100 nanograms per milliliter (ng/mL)) and interferon gamma (IFN-γ) (20 ng/mL) for 24 h to induce M1 polarization. Then, fresh hydrogel leaching solution is added, and after 24 h, the cytoskeleton is stained with CLSM to observe the morphological changes of macrophages.

Substance	time until almost all encapsulated PDRN is released [1] [days]	macrophage polarization [2]	cumulative release of verteporfin ([1]; after 28 days of incubation) [%]
polydeoxyribonucleotide [PDRN]	≤ 7	promotes macrophages to have M1 to M2 transformation	
verteporfin [reference compound]			72
